Laboratory results: ChEMBL document CHEMBL1153885, “Design, synthesis and evaluation of novel uracil acetamide derivatives as potential inhibitors of Plasmodium falciparum dUTP nucleotidohydrolase” (Eur J Med Chem, 2009)

Legend:
[1] = tested on: L6; assay: Cytotoxicity against rat L6 cells; type: cell-based
[2] = target: T1, dUTP pyrophosphatase (Plasmodium falciparum 3D7, UniProt Q8II92); assay: Inhibition of Plasmodium falciparum dUTPase
T1 sequence (Q8II92 whole entry): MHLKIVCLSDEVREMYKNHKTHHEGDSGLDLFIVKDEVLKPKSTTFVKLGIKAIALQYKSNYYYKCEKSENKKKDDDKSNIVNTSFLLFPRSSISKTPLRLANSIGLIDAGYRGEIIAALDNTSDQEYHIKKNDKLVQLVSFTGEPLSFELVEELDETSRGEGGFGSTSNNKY

[3] = Selectivity ratio of human dUTPase to Plasmodium falciparum dUTPase
[4] = target: T2, Deoxyuridine 5'-triphosphate nucleotidohydrolase, mitochondrial (Homo sapiens, UniProt P33316); assay: Inhibition of human dUTPase
T2 sequence (P33316 whole entry): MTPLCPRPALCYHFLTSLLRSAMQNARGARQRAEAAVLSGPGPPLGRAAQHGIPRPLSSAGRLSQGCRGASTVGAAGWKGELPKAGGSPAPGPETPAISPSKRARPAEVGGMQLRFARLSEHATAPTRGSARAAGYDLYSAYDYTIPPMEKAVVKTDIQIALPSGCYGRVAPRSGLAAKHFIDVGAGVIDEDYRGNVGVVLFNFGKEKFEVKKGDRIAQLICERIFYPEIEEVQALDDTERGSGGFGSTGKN

[5] = tested on: Plasmodium falciparum; assay: Antiplasmodial activity against chloroquine-resistant Plasmodium falciparum K1 infected erythrocytes; type: functional, organism-based

Row | SMILES | Activity [1] [µM] | Ki [2] [µM] | Selectivity Index [3] | Ki [4] [µM] | IC50 [5] [µM]
1 | O=C(Cn1ccc(=O)[nH]c1=O)NCCCNC(c1ccccc1)(c1ccccc1)c1ccccc1 | 102.2 | 23.1 | > 43 | > 1000 | 2.5
2 | CC(C)(C)[Si](NCCCCCCn1ccc(=O)[nH]c1=O)(c1ccccc1)c1ccccc1 | 18 | 8.5 | > 117 | > 1000 | 3.9
3 | CC(C)(C)[Si](OCCCNC(=O)Cn1ccc(=O)[nH]c1=O)(c1ccccc1)c1ccccc1 | 88.9 | > 1000 | > 1 | > 1000 | 4.6
4 | O=C(Cn1ccc(=O)[nH]c1=O)NCCCNCCCNC(c1ccccc1)(c1ccccc1)c1ccccc1 | 76.7 | > 1000 | > 1 | > 1000 | 3.9
5 | CC(C)(C)[Si](OCCCCNC(=O)Cn1ccc(=O)[nH]c1=O)(c1ccccc1)c1ccccc1 | 33.4 | > 1000 | > 1 | > 1000 | 3.7
6 | O=C(Cn1ccc(=O)[nH]c1=O)NCCCCNC(c1ccccc1)(c1ccccc1)c1ccccc1 | 42.7 | > 1000 | > 1 | > 1000 | 2.9
7 | O=C(Cn1ccc(=O)[nH]c1=O)NCCNCCNC(c1ccccc1)(c1ccccc1)c1ccccc1 | 52.7 | > 1000 | > 1 | > 1000 | 4.5
8 | O=C(Cn1ccc(=O)[nH]c1=O)N(CCO)CCNC(c1ccccc1)(c1ccccc1)c1ccccc1 | > 373 | > 1000 | > 1 | > 1000 | > 83
9 | O=C(Cn1ccc(=O)[nH]c1=O)NCCNC(c1ccccc1)(c1ccccc1)c1ccccc1 | 53 | 37.3 | > 26 | > 1000 | 4.2
10 | O=c1ccn(CCCCCCNC(c2ccccc2)(c2ccccc2)c2ccccc2)c(=O)[nH]1 | 40 |  | > 555 |  | 
11 | O=c1ccn(CCCCCNC(c2ccccc2)(c2ccccc2)c2ccccc2)c(=O)[nH]1 | 39 |  | > 232 |  | 
